Experiment [1] has as its system Staphylococcus aureus ATCC 25923. Kind of experiment: microbe, parasite or virus in culture. To be noted: ATCC25923, read-out: MIC S. aureus.
Experiment [2] relates to Escherichia coli ATCC 25922. Kind of experiment: microbe, parasite or virus in culture. To be noted: ATCC25922, read-out: MIC E. coli.
For another experiment, the system named is MRSA ATCC 33591. The settings on record: ATCC 33591.
The subject of experiment [3] is Staphylococcus aureus ATCC 25923. To be noted: ATCC 25923.
Experiment [4] deals with Escherichia coli ATCC 25922. The settings on record: ATCC 25922.
The next experiment deals with MRSE ATCC 27626. The settings on record: ATCC 27626.

The record followed here is patent US9115169B2, “Method of treating tumors” (Lytix Biopharma AS, priority 2000, dated 2015).

The structures appear in SMILES notation. Values after ≈ are worked out from the molar mass of the structure shown. Where a SMILES comes first, the peptide text is derived from it. [ ]: non-standard residue; d: D form. The star is where a group is joined. Phe(4-tBu) = CC(C)(C)c1ccc(C[C@H](N)C(=O)O)cc1; tBuAla = CC(C)(C)C[C@H](N)C(=O)O; Tle = CC(C)(C)[C@H](N)C(=O)O; OBn = c1ccc(CO*)cc1

Procedure for MRSA ATCC 33591: (§1) All strains were stored at −70° C. […] All assays were performed in duplicate.
Procedure for MRSE ATCC 27626: as §1
Procedure for P. aeruginosa: as §1

`CC(C)(C)c1cc(C(C)(C)C)c2[nH]c(C(C)(C)C)c(C[C@H](N)C(=O)NCCCCN)c2c1` [H-Tbt-Dab-H]: the MIC in experiment [1] and in experiment [2] was 35 µg/mL (≈ 79.1 µM) each time.

Consider `CC(C)(C)c1cc(C(C)(C)C)c2[nH]c(C(C)(C)C)c(C[C@H](N)C(=O)NCCN)c2c1` [H-Tbt-Dae-H], for which the MIC in experiment [1] and in experiment [2] was 15 µg/mL (≈ 36.2 µM) each time.

On to `CC(C)(C)c1cc(C(C)(C)C)c2[nH]c(C(C)(C)C)c(C[C@H](N)C(=O)NCCCCCCN)c2c1` [H-Tbt-Dah-H], for which the MIC in experiment [1] and in experiment [2] was 15 µg/mL (≈ 31.9 µM) each time.

For `NCCCC[C@H](N)C(=O)O[C@H](Cc1c[nH]c2ccccc12)C(=O)OCc1ccccc1` [Kψ(COO)wOBzl], the “Minimum inhibitory concentration MRSA” value in the experiment on MRSA ATCC 33591 amounted to 100 µg/mL (≈ 236 µM). The “Minimum inhibitory concentration S. aureus” value in experiment [3] stood at 50 µg/mL (≈ 118 µM). In addition, the “Minimum inhibitory concentration P. aeruginosa” value with P. aeruginosa is 300 µg/mL (≈ 708 µM). Moreover, the “Minimum inhibitory concentration E. coli” value in experiment [4] stood at 150 µg/mL (≈ 354 µM). For the same compound, the “Minimum inhibitory concentration MRSE” value in the experiment on MRSE ATCC 27626 was 37.5 µg/mL (≈ 88.5 µM).

Regarding `CC(C)(C)C[C@H](N)C(=O)N[C@@H](CCCNC(=N)N)C(=O)OCc1ccccc1` [tBuAR-OBzl] (H-[tBuAla]-Arg-OBn; N-terminus assumed), the “MIC MRSA” value against MRSA ATCC 33591 was 150 to 200 µg/mL. Further, the “MIC S. aureus” value in experiment [3] was determined as 300.0 µg/mL (≈ 766 µM). Further, the “MIC P. aerug.” value against P. aeruginosa is over 300.0 µg/mL. The “MIC E. coli” value in experiment [4] was over 300.0 µg/mL. Besides, the “MIC MRSE” value against MRSE ATCC 27626 was 100.0 µg/mL (≈ 255 µM).

On to `CC(C)(C)c1ccc(C[C@H](N)C(=O)N[C@@H](CCCNC(=N)N)C(=O)OCc2ccccc2)cc1` [tBuFR-OBzl] (H-[Phe(4-tBu)]-Arg-OBn; N-terminus assumed), for which the “MIC MRSA” value in the experiment with MRSA ATCC 33591 fell in the range of 12.5 to 25 µg/mL. The “MIC S. aureus” value in experiment [3] was determined as 25.0 µg/mL (≈ 53.5 µM). Further, the “MIC P. aerug.” value with P. aeruginosa was 100.0 µg/mL (≈ 214 µM). Besides, the “MIC E. coli” value in experiment [4] is 200.0 µg/mL (≈ 428 µM). In addition, the “MIC MRSE” value in the experiment with MRSE ATCC 27626 stood at 5.0 µg/mL (≈ 10.7 µM).

As for `COC(=O)[C@H](CCCNC(=N)N)NC(=O)[C@@H](N)Cc1ccc(C(C)(C)C)cc1` [tBuFR-OMe] (H-[Phe(4-tBu)]-Arg-OMe; N-terminus assumed), in the experiment with MRSA ATCC 33591, the “MIC MRSA” value was 100.0 µg/mL (≈ 255 µM). Also, the “MIC S. aureus” value in experiment [3] was over 300.0 µg/mL. Moreover, the “MIC P. aerug.” value against P. aeruginosa was over 300.0 µg/mL. In experiment [4], the “MIC E. coli” value is over 300.0 µg/mL. The “MIC MRSE” value against MRSE ATCC 27626 stood at 100.0 µg/mL (≈ 255 µM).

In the case of `CC(C)(C)[C@H](N)C(=O)N[C@@H](CCCNC(=N)N)C(=O)OCc1ccccc1` [tBuGR-OBzl] (H-[Tle]-Arg-OBn; N-terminus assumed), the “MIC MRSA” value in the experiment with MRSA ATCC 33591 is 100.0 µg/mL (≈ 265 µM). For the same compound, in experiment [3], the “MIC S. aureus” value was over 300.0 µg/mL. In addition, in the experiment with P. aeruginosa, the “MIC P. aerug.” value was over 300.0 µg/mL. Also, the “MIC E. coli” value in experiment [4] is over 300.0 µg/mL. Also, in the experiment on MRSE ATCC 27626, the “MIC MRSE” value came to 150.0 µg/mL (≈ 397 µM).
